One assay concerns Aspergillus species. The assay can be described thus: Antifungal activity with Mycograb antibody, summary over the Aspergillus species examined. It counts as cell-based. The conditions noted are these: for Antifungal activity / surprising effect when used in combination with Mycograb antibody: summary of Tables 1-4, agent combined with Mycograb antibody. The protocol:
(§1) An inoculum suspension was prepared in buffered RPMI with glutamine medium by probing colonies from a 7 day old Sabouraud plate. The suspension was adjusted to 0.09-0.11 (80% to 82% transmittance) for Aspergillus species, 0.15-0.17 (68% to 70% transmittance). The inoculum was diluted a further 1:2 when added to the antifungal agents in the assay (final inoculum (0.4×10^4 to 0.5×10^4). For AMB and Mycograb®, either alone or in combination, the endpoint was determined as the concentration to produce no growth (MIC-0). Microtitre plates were incubated at 37° C. without agitation for 48 hours for Aspergillus species. For caspofungin, voriconazole and itraconazole, either alone or in combination with Mycograb® antibody, the MIC endpoint was determined as the concentration resulting in a prominent decrease in turbidity (≧50% growth inhibition, MIC-2) compared to the growth control (Keele et al. 2001; Espinel-Ingroff 2003). The final inhibitory concentration (FIC) was calculated for each drug by dividing the MIC in the presence of the second drug by the MIC in its absence. For each combination, two fractions were produced which were summated to produce the fractional final inhibitory concentration. Synergy was defined by value of ≦0.5, indifference was defined by a value of >0.5 to <4.0, and antagonism was defined by a value of ≧4.0 (Matthews et al., 2003).

Another assay has as its system A. fumigatus CI2. In words: Broth microdilution (NCCLS M38-A) checkerboard assay, A. fumigatus CI2. As to conditions: for MIC: Aspergillus fumigatus, agent alone, read-out: MIC-2 of each agent, Alone. It counts as cell-based, Aspergillus fumigatus. How it is done:
(§2) Stock solutions of amphotericin B (AMB, Sigma), caspofungin (Caspo), voriconazole (VOR) and itraconazole (ITZ) were prepared according to the National Committee for Clinical Laboratory Standards (M38-A) in RPMI 1640 with glutamine broth medium, buffered to pH 7.0 with […] morpholinopropanesulphonic acid (MOPS). AMB stock solutions were prepared as a 100× series in 100% dimethyl sulfoxide (DMSO) and diluted in medium to a concentration range of 0.03125 to 16 μg/ml. Caspofungin, voriconazole and itraconazole were tested at a concentration range of 0.03125 to 1024 μg/ml, and Mycograb® (NeuTec Pharma plc) at a concentration range of 0.25 to 1024 μg/ml.
(§3) Clinical isolates of Aspergillus fumigatus (2), A. flavus (1), A. terreus (1) and A. niger (1) were obtained from the Department on Microbiology, Manchester Royal Infirmary, Manchester, UK.
as §1
(In broth dilution the organism is exposed to a series of concentrations in liquid medium.)

In the next assay the test system is A. terreus. The assay can be described thus: Broth microdilution (NCCLS M38-A) checkerboard assay, A. terreus. The class given is cell-based. As to conditions: for MIC: Aspergillus terreus, agent alone, read-out: MIC-2 of each agent, Alone; for FIC: MIC in combination divided by MIC alone. The protocol:
as §2, §3, §1

The next assay concerns A. fumigatus. In words: Broth microdilution (NCCLS M38-A) checkerboard assay, A. fumigatus. It counts as cell-based, Aspergillus fumigatus. As to conditions: for MIC: Aspergillus fumigatus, agent alone, read-out: MIC-2 of each agent, Alone. How it is done: as §2, §3, §1
The next assay concerns A. niger. In words: Broth microdilution (NCCLS M38-A) checkerboard assay, A. niger. As to conditions: for MIC: Aspergillus niger, agent alone, read-out: MIC-2 of each agent, Alone. The class given is cell-based. The protocol:
as §2, §3, §1

In another assay the test system is A. flavus. In words: Broth microdilution (NCCLS M38-A) checkerboard assay, A. flavus. The class given is cell-based. The conditions noted are these: for MIC: Aspergillus flavus, agent alone, read-out: MIC-2 of each agent, Alone. How it is done: as §2, §3, §1
Setting [1] is: Table 3, ≧50% growth inhibition endpoint.
The mark [2] stands for this setting: itraconazole and Mycograb combination.
Setting [3] is: itraconazole and Mycograb in combination.
[4] abbreviates: Table 4, ≧50% growth inhibition endpoint.
Where [5] appears, read: voriconazole and Mycograb combination.
Where [6] appears, read: voriconazole and Mycograb in combination.
Where [7] appears, read: Table 2, ≧50% growth inhibition endpoint.
[8] abbreviates: caspofungin and Mycograb combination.
Where [9] appears, read: caspofungin and Mycograb in combination.

Read-outs that look alike come from different tables or passages of the source.

With `CC[C@@H]([C@H](C)O)n1ncn(-c2ccc(N3CCN(c4ccc(OC[C@@H]5CO[C@@](Cn6cncn6)(c6ccc(F)cc6F)C5)cc4)CC3)cc2)c1=O` [posaconazole], the “Synergy with antibody specific for Aspergillus hsp90 epitope” value in the assay with Aspergillus species (preliminary results) is reported as “capable of achieving similar synergistic results”.

Consider `CCC(C)n1ncn(-c2ccc(N3CCN(c4ccc(OCC5COC(Cn6cncn6)(c6ccc(Cl)cc6Cl)O5)cc4)CC3)cc2)c1=O` (stereo not drawn) [ITZ, itraconazole], for which the MIC (commonly the smallest concentration in the dilution series that meets the test's criterion for growth inhibition) with A. fumigatus CI2 (setting [1]) worked out at 0.5 µg/mL; in the assay with A. terreus (setting [1]), 0.125 µg/mL; in the assay on A. fumigatus (setting [1]), 0.5 µg/mL; in the assay with A. niger (setting [1]), 0.125 µg/mL; in the assay on A. flavus (setting [1]), 0.125 µg/mL. Also, the FICI with A. fumigatus CI2 (setting [2]) is 0.2578; with A. terreus (setting [2]), 0.281; with A. fumigatus (setting [2]), 0.0781; with A. niger (setting [2]), 0.375; in the assay with A. flavus (setting [2]) it was 0.25. For the same compound, the Outcome entry in the assay with A. fumigatus CI2 (setting [2]), with A. terreus (setting [2]), in the assay on A. fumigatus (setting [2]), in the assay with A. niger (setting [2]) and in the assay on A. flavus (setting [2]) was “Synergy (Synergy was defined by value of ≦0.5)” in each case. Also, the “MIC-2 of each agent, Combination” value in the assay with A. fumigatus CI2 (setting [3]) was 0.125 µg/mL; in the assay with A. terreus (setting [3]), 0.0312 µg/mL; in the assay on A. fumigatus (setting [3]), 0.0312 µg/mL; in the assay with A. niger (setting [3]), 0.0156 µg/mL; in the assay on A. flavus (setting [3]), 0.0312 µg/mL. Besides, the FIC in the assay on A. terreus (itraconazole and Mycograb) worked out at 0.25 µg/mL.

Regarding `C[C@@H](c1ncncc1F)[C@](O)(Cn1cncn1)c1ccc(F)cc1F` [VOR, voriconazole], the MIC with A. fumigatus CI2 (setting [4]) was 0.25 µg/mL; in the assay on A. terreus (setting [4]) it was 0.25 µg/mL; with A. fumigatus (setting [4]), 0.0625 µg/mL; with A. niger (setting [4]), 0.125 µg/mL; with A. flavus (setting [4]), 0.25 µg/mL. Moreover, the FICI amounted to 0.5 in the assay with A. fumigatus CI2 (setting [5]); 0.5 in the assay with A. terreus (setting [5]); 0.5 with A. fumigatus (setting [5]); 2 in the assay on A. niger (setting [5]); 0.25 in the assay on A. flavus (setting [5]). Further, the Outcome result in the assay on A. fumigatus CI2 (setting [5]) is listed as “Synergy (Synergy was defined by value of ≦0.5)”; in the assay with A. terreus (setting [5]), “Synergy (Synergy was defined by value of ≦0.5)”; with A. fumigatus (setting [5]) it was “Synergy (Synergy was defined by value of ≦0.5)”; with A. niger (setting [5]), “Indifferent (indifference was defined by a value of >0.5 to <4.0)”; in the assay with A. flavus (setting [5]), “Synergy (Synergy was defined by value of ≦0.5)”. Moreover, the “MIC-2 of each agent, Combination” value was determined as 0.125 µg/mL with A. fumigatus CI2 (setting [6]); 0.125 µg/mL with A. terreus (setting [6]); 0.0312 µg/mL with A. fumigatus (setting [6]); 0.125 µg/mL in the assay on A. niger (setting [6]); 0.0625 µg/mL in the assay on A. flavus (setting [6]). The “Antifungal activity / surprising effect when used in combination with Mycograb antibody” value in the assay with Aspergillus species is recorded as “surprisingly high level of antifungal activity against all the species examined except for A. niger”. Besides, the FIC in the assay on A. terreus (voriconazole and Mycograb) was found to be 0.5 µg/mL.

With `CC[C@H](C)C[C@H](C)CCCCCCCCC(=O)N[C@H]1C[C@@H](O)[C@@H](NCCN)NC(=O)[C@@H]2[C@@H](O)CCN2C(=O)[C@H]([C@H](O)CCN)NC(=O)[C@H]([C@H](O)[C@@H](O)c2ccc(O)cc2)NC(=O)[C@@H]2C[C@@H](O)CN2C(=O)[C@H]([C@@H](C)O)NC1=O` [Caspo, caspofungin], the MIC in the assay with A. fumigatus CI2 (setting [7]) was determined as 0.125 µg/mL; in the assay with A. terreus (setting [7]), 0.312 µg/mL; in the assay with A. fumigatus (setting [7]) it was 0.125 µg/mL; with A. niger (setting [7]), 1 µg/mL; with A. flavus (setting [7]), 1 µg/mL. Also, the FICI in the assay with A. fumigatus CI2 (setting [8]) amounted to 0.562; in the assay with A. terreus (setting [8]), 0.312; in the assay on A. fumigatus (setting [8]), 0.562; in the assay on A. niger (setting [8]), 0.125; with A. flavus (setting [8]), 0.500. Moreover, the Outcome entry is reported as “Indifferent (indifference was defined by a value of >0.5 to <4.0)” in the assay on A. fumigatus CI2 (setting [8]); “Synergy (Synergy was defined by value of ≦0.5)” with A. terreus (setting [8]); “Indifferent (indifference was defined by a value of >0.5 to <4.0)” in the assay with A. fumigatus (setting [8]); “Synergy (Synergy was defined by value of ≦0.5)” with A. niger (setting [8]); “Indifferent (indifference was defined by a value of >0.5 to <4.0)” in the assay on A. flavus (setting [8]). Besides, the “MIC-2 of each agent, Combination” value turned out to be 0.0625 µg/mL with A. fumigatus CI2 (setting [9]); 0.078 µg/mL in the assay on A. terreus (setting [9]); 0.0625 µg/mL with A. fumigatus (setting [9]); 0.125 µg/mL with A. niger (setting [9]); 0.5 µg/mL with A. flavus (setting [9]). Moreover, the “Antifungal activity / surprising effect when used in combination with Mycograb antibody” value in the assay with Aspergillus species is “not observed”. Further, the FIC in the assay on A. terreus (caspofungin and Mycograb) was 0.25 µg/mL.

Values taken from patent US20080095778A1, “Treatment Of Fungal Infections” (priority 2004, published 2008).
